Publication PMC3499949 (Journal of medicinal chemistry, 2012)

Experiments:
hMOR [1] = target: T1, hMOR (Homo sapiens, UniProt P35372); test: [35S]GTP-γ-S binding assay, agonist stimulation, MOR; assay type: biochemical; settings: stimulation of [35S]GTP-γ-S binding; no stim = no stimulation at 10 µM
DOR [2] = target: T2, DOR (Mus musculus, UniProt P32300); test: [35S]GTP-γ-S binding assay, agonist stimulation, DOR; settings: for DOR EC50: stimulation of [35S]GTP-γ-S binding, no stim = no stimulation at 10 µM
T2 sequence (P32300 whole entry): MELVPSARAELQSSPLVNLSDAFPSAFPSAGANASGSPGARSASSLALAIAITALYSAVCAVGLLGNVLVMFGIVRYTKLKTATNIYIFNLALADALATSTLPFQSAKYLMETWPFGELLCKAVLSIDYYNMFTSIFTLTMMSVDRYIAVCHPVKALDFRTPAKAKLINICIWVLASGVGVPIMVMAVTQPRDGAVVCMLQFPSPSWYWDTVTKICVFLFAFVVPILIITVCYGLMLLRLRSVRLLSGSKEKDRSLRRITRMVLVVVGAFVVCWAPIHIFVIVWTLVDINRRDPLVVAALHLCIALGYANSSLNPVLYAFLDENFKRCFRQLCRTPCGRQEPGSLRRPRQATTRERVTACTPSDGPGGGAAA

DOR [3] = target: T2, DOR; test: [35S]GTP-γ-S binding assay, antagonist shift design, DOR; assay type: biochemical
hMOR [4] = target: T1, hMOR; test: [35S]GTP-γ-S binding assay, antagonist shift design, MOR; assay type: biochemical
hKOR [5] = target: T3, hKOR (Homo sapiens, UniProt P41145); test: [35S]GTP-γ-S binding assay, antagonist shift design, KOR; assay type: biochemical
T3 sequence (P41145 whole entry): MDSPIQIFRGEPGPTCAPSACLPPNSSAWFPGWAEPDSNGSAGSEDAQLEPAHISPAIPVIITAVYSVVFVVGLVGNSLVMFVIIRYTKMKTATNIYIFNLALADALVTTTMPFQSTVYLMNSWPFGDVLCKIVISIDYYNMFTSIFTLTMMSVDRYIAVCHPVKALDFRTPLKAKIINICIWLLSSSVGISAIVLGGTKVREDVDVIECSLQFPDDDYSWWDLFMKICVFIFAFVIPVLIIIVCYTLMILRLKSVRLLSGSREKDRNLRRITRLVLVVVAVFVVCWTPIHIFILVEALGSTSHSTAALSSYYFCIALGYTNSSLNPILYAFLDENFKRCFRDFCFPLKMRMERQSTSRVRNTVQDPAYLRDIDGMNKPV

mice [6] = test: 55 °C warm-water tail-withdrawal assay, i.c.v. administration; assay type: in vivo, Male ICR mice; settings: mouse
mice [7] = assay type: in vivo, Male ICR mice; settings: mouse, i.c.v.
hKOR [8] = target: T3, hKOR; test: [35S]GTP-γ-S binding assay, agonist stimulation, KOR; assay type: biochemical; settings: stimulation of [35S]GTP-γ-S binding; no stim = no stimulation at 10 µM
hDOR = hDOR (Homo sapiens, UniProt P41143); test: Radioligand displacement binding, [3H]DADLE, CHO cell membranes expressing hDOR; settings: 18a vs 17b, 18d vs 17f
hDOR, sequence (P41143 whole entry): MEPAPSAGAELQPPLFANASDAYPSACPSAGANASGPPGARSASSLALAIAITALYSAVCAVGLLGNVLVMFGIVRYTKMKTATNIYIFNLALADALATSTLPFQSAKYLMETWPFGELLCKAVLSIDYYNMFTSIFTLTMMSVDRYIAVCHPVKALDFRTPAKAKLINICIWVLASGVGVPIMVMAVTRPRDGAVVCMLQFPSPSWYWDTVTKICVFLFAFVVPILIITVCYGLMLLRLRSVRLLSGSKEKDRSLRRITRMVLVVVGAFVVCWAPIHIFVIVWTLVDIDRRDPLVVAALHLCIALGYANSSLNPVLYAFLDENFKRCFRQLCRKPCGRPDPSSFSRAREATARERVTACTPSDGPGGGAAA

T1 sequence (P35372 whole entry): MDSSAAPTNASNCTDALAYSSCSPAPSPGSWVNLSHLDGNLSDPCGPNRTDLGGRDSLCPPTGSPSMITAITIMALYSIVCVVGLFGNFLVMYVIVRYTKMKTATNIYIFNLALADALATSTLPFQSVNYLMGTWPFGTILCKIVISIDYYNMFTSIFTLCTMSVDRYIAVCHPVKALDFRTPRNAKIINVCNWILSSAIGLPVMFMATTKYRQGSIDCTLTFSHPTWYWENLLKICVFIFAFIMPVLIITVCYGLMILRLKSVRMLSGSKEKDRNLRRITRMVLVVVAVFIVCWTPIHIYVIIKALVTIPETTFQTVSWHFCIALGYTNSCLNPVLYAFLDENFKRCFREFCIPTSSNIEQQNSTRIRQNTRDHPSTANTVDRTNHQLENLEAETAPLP

CO[C@@]12Cc3cc(-c4ccc(Cl)cc4)cnc3[C@@H]3Oc4c(O)ccc5c4[C@@]31CCN(CC1CC1)[C@@H]2C5 [17a, 5′-(4-Chlorophenyl)-17-(cyclopropylmethyl)-6,7-didehydro-4,5α-epoxy-3-hydroxy-14-methoxypyrido[2′,3′:6,7]morphinan] was tested, and the “MOR EC50” value (hMOR [1]) was “no stim” and the “DOR EC50” value (DOR [2]) was “no stim ^b”.

Compound Oc1ccc2c3c1O[C@H]1c4ncc(-c5ccc(Cl)cc5)cc4C[C@@]4(OCc5ccccc5)[C@@H](C2)N(CC2CC2)CC[C@]314 [17b, 14-(Benzyloxy)-5′-(4-chlorophenyl)-17-(cyclopropylmethyl)-6,7-didehydro-4,5α-epoxy-3-hydroxypyrido[2′,3′:6,7]morphinan] has a Kb (DOR [3]) of 0.64 ± 0.11 nM, a Kb (hMOR [4]) of 11 ± 1 nM and a Kb (hKOR [5]) of 13 ± 3 nM. For the same compound, the “MOR EC50” value (hMOR [1]) was “no stim” and the “DOR EC50” value (DOR [2]) was “no stim”.

In the case of Oc1ccc2c3c1O[C@H]1c4ncc(-c5ccc(Cl)cc5)cc4C[C@@]4(OC/C=C/c5ccccc5)[C@@H](C2)N(CC2CC2)CC[C@]314 [17c, 5′-(4-Chlorophenyl)-14-cinnamyloxy-17-(cyclopropylmethyl)-6,7-didehydro-4,5α-epoxy-3-hydroxypyrido[2′,3′:6,7]morphinan], the “MOR EC50” value (hMOR [1]) is reported as “no stim” and the “DOR EC50” value (DOR [2]) is reported as “no stim”.

With Oc1ccc2c3c1O[C@H]1c4ncc(-c5ccc(Cl)cc5)cc4C[C@@]4(OCCCc5ccccc5)[C@@H](C2)N(CC2CC2)CC[C@]314 [17d, 5′-(4-Chlorophenyl)-17-(cyclopropylmethyl)-6,7-didehydro-4,5α-epoxy-3-hydroxy-14-(3-phenylpropoxy)pyrido[2′,3′:6,7]morphinan] the Kb (DOR [3]) was 0.091 ± 0.01 nM, the “dose for maximal antinociception” value (mice [6]) was 1 nmol and the “DOR EC50” value (DOR [2]) was “no stim”.

CO[C@@]12Cc3cc(-c4ccc(Cl)cc4)cnc3[C@@H]3Oc4c(O)ccc5c4[C@@]31CCN(C)[C@@H]2C5 [17e, 5′-(4-Chlorophenyl)-6,7-didehydro-4,5α-epoxy-3-hydroxy-14-methoxy-17-methylpyrido[2′,3′:6,7]morphinan] was tested, and the Kb (DOR [3]) was 1.6 ± 0.35 nM, the Kb (hKOR [5]) was 17 ± 0.13 nM and the “dose for maximal antinociception” value (mice [6]) was 10 nmol. The “fold weaker analgesic effect than other tested ligands” value (mice [6]; tail-withdrawal) was 6 fold and the “DOR EC50” value (DOR [2]) was “no stim”.

In the case of CN1CC[C@]23c4c5ccc(O)c4O[C@H]2c2ncc(-c4ccc(Cl)cc4)cc2C[C@@]3(OCc2ccccc2)[C@H]1C5 [17f, 14-Benzyloxy-5′-(4-chlorophenyl)-6,7-didehydro-4,5α-epoxy-3-hydroxy-17-methylpyrido[2′,3′:6,7]morphinan], the Kb (DOR [3]) is reported as 4.54 ± 0.81 nM, the Kb (hKOR [5]) is reported as 83 ± 14 nM and the EC50 (DOR [2]) is reported as 11 ± 1 nM.

In the case of CN1CC[C@]23c4c5ccc(O)c4O[C@H]2c2ncc(-c4ccc(Cl)cc4)cc2C[C@@]3(OC/C=C/c2ccccc2)[C@H]1C5 [17g, 5′-(4-Chlorophenyl)-14-cinnamyloxy-6,7-didehydro-4,5α-epoxy-3-hydroxy-17-methylpyrido[2′,3′:6,7]morphinan], the “dose for maximal antinociception” value (mice [6]) is reported as 1 nmol, the “toxicity on repeated administration” value (mice [7]) is reported as “undue toxicity” and the EC50 (DOR [2]) is reported as 0.59 ± 0.05 nM.

With CN1CC[C@]23c4c5ccc(O)c4O[C@H]2c2ncc(-c4ccc(Cl)cc4)cc2C[C@@]3(OCCCc2ccccc2)[C@H]1C5 [17h, 5′-(4-Chlorophenyl)-6,7-didehydro-4,5α-epoxy-3-hydroxy-17-methyl-14-(3-phenylpropoxy)pyrido[2′,3′:6,7]morphinan] the Kb (hKOR [5]) was 6.9 ± 0.02 nM, the “KOR EC50” value (hKOR [8]) was “no stim” and the “dose for maximal antinociception” value (mice [6]) was 1 nmol. The “toxicity on repeated administration” value (mice [7]) was “undue toxicity” and the EC50 (DOR [2]) was 0.27 ± 0.03 nM.

For O=C(O[C@@]12Cc3cc(-c4ccc(Cl)cc4)cnc3[C@@H]3Oc4c(O)ccc5c4[C@@]31CCN(CC1CC1)[C@@H]2C5)c1ccccc1 [18a, 14-Benzoyloxy-5′-(4-chlorophenyl)-17-(cyclopropylmethyl)-6,7-didehydro-4,5α-epoxy-3-hydroxypyrido[2′,3′:6,7]morphinan], the “fold weaker in binding to DOR compared to 14-benzyloxy counterpart” value (hDOR) was 45 fold, the Kb (DOR [3]) was 218 ± 2 nM and the Kb (hMOR [4]) was 261 ± 36 nM. For the same compound, the Kb (hKOR [5]) was 126 ± 13 nM, the “MOR EC50” value (hMOR [1]) was “no stim” and the “KOR EC50” value (hKOR [8]) was “no stim”. For the same compound, the “DOR EC50” value (DOR [2]) was “no stim”.

O=C(Cc1ccccc1)O[C@@]12Cc3cc(-c4ccc(Cl)cc4)cnc3[C@@H]3Oc4c(O)ccc5c4[C@@]31CCN(CC1CC1)[C@@H]2C5 [18b, 5′-(4-Chlorophenyl)-17-(cyclopropylmethyl)-6,7-didehydro-4,5α-epoxy-3-hydroxy-14-(phenylacetoxy)pyrido[2′,3′:6,7]morphinan] showed a Kb (DOR [3]) of 0.37 ± 0.04 nM, a Kb (hMOR [4]) of 0.48 ± 0.06 nM and a Kb (hKOR [5]) of 7 ± 2 nM. For the same compound, the “MOR EC50” value (hMOR [1]) was “no stim” and the “DOR EC50” value (DOR [2]) was “no stim”.

Compound O=C(CCc1ccccc1)O[C@@]12Cc3cc(-c4ccc(Cl)cc4)cnc3[C@@H]3Oc4c(O)ccc5c4[C@@]31CCN(CC1CC1)[C@@H]2C5 [18c, 5′-(4-Chlorophenyl)-17-(cyclopropylmethyl)-6,7-didehydro-4,5α-epoxy-3-hydroxy-14-(3-phenylpropionyloxy)pyrido[2′,3′:6,7]morphinan] has a Kb (DOR [3]) of 1.86 ± 0.21 nM, a Kb (hMOR [4]) of 13 ± 1.7 nM and a Kb (hKOR [5]) of 14 ± 2 nM. For the same compound, the “MOR EC50” value (hMOR [1]) was “no stim” and the “DOR EC50” value (DOR [2]) was “no stim”.

With CN1CC[C@]23c4c5ccc(O)c4O[C@H]2c2ncc(-c4ccc(Cl)cc4)cc2C[C@@]3(OC(=O)c2ccccc2)[C@H]1C5 [18d, 14-Benzoyloxy-5′-(4-chlorophenyl)-6,7-didehydro-4,5α-epoxy-3-hydroxy-17-methylpyrido[2′,3′:6,7]morphinan] the “fold weaker in binding to DOR compared to 14-benzyloxy counterpart” value (hDOR) was 10 fold, the Kb (DOR [3]) was 45 ± 6 nM and the Kb (hMOR [4]) was 1270 ± 166 nM. For the same compound, the Kb (hKOR [5]) was 426 ± 47 nM, the “KOR EC50” value (hKOR [8]) was “no stim” and the “DOR EC50” value (DOR [2]) was “no stim”.

CN1CC[C@]23c4c5ccc(O)c4O[C@H]2c2ncc(-c4ccc(Cl)cc4)cc2C[C@@]3(OC(=O)Cc2ccccc2)[C@H]1C5 [18e, 5′-(4-Chlorophenyl)-6,7-didehydro-4,5α-epoxy-3-hydroxy-17-methyl-14-(phenylacetoxy)pyrido[2′,3′:6,7]morphinan] showed a Kb (DOR [3]) of 3.38 ± 0.34 nM, a Kb (hKOR [5]) of 198 ± 20 nM and an EC50 (DOR [2]) of 19 ± 6 nM.

With CN1CC[C@]23c4c5ccc(O)c4O[C@H]2c2ncc(-c4ccc(Cl)cc4)cc2C[C@@]3(OC(=O)CCc2ccccc2)[C@H]1C5 [18f, 5′-(4-Chlorophenyl)-6,7-didehydro-4,5α-epoxy-3-hydroxy-17-methyl-14-(3-phenylpropionyloxy)pyrido[2′,3′:6,7]morphinan] the Kb (DOR [3]) was 1.64 ± 0.3 nM, the Kb (hKOR [5]) was 18 ± 0.2 nM and the EC50 (DOR [2]) was 5.52 ± 0.53 nM.

CN1CC[C@]23c4c5ccc(O)c4O[C@H]2[C@@H](O)C=C[C@H]3[C@H]1C5 [Morphine, reference compound] was tested, and the “dose for maximal antinociception” value (mice [6]) was 10 nmol.

With Oc1ccc2c3c1O[C@H]1c4ncc(-c5ccc(Cl)cc5)cc4C=C4[C@@H](C2)N(CC2CC2)CC[C@]431 [compound 23, 5′-(4-Chlorophenyl)-17-(cyclopropylmethyl)-3-hydroxy-6,7,8,14-tetradehydro-4,5α-epoxypyrido[2′,3′:6,7]morphinan] the Kb (DOR [3]) was 0.58 ± 0.1 nM, the Kb (hMOR [4]) was 8 ± 0.89 nM and the Kb (hKOR [5]) was 19 ± 3 nM. The “MOR EC50” value (hMOR [1]) was “no stim”, the “KOR EC50” value (hKOR [8]) was “no stim” and the “DOR EC50” value (DOR [2]) was “no stim”.
